pIC50, pKi: −log10 of the molar value.

Assay [1] addresses T1, beta-catenin-B-cell lymphoma 9 protein complex (Homo sapiens, UniProt P35222).
T1 sequence (P35222 whole entry): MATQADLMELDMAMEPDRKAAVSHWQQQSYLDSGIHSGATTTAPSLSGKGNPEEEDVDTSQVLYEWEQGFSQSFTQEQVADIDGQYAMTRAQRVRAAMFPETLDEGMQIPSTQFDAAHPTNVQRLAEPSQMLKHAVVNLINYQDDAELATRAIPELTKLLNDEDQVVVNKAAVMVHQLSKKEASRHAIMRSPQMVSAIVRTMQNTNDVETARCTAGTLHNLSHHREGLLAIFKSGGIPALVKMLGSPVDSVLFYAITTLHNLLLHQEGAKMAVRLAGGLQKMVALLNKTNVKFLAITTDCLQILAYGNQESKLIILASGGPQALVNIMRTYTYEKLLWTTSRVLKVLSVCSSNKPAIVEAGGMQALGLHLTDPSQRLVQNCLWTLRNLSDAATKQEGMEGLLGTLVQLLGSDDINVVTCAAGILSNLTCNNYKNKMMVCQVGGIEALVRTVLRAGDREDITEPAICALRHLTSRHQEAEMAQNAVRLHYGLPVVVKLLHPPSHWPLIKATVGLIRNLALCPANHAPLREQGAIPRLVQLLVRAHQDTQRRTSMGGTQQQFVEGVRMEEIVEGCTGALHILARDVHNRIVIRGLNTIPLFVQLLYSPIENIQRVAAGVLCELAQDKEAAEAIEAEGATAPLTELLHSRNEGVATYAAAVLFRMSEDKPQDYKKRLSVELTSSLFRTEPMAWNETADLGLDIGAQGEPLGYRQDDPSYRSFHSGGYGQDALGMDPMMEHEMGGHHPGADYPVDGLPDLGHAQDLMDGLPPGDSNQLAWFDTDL
T1 sequence (O00512 whole entry): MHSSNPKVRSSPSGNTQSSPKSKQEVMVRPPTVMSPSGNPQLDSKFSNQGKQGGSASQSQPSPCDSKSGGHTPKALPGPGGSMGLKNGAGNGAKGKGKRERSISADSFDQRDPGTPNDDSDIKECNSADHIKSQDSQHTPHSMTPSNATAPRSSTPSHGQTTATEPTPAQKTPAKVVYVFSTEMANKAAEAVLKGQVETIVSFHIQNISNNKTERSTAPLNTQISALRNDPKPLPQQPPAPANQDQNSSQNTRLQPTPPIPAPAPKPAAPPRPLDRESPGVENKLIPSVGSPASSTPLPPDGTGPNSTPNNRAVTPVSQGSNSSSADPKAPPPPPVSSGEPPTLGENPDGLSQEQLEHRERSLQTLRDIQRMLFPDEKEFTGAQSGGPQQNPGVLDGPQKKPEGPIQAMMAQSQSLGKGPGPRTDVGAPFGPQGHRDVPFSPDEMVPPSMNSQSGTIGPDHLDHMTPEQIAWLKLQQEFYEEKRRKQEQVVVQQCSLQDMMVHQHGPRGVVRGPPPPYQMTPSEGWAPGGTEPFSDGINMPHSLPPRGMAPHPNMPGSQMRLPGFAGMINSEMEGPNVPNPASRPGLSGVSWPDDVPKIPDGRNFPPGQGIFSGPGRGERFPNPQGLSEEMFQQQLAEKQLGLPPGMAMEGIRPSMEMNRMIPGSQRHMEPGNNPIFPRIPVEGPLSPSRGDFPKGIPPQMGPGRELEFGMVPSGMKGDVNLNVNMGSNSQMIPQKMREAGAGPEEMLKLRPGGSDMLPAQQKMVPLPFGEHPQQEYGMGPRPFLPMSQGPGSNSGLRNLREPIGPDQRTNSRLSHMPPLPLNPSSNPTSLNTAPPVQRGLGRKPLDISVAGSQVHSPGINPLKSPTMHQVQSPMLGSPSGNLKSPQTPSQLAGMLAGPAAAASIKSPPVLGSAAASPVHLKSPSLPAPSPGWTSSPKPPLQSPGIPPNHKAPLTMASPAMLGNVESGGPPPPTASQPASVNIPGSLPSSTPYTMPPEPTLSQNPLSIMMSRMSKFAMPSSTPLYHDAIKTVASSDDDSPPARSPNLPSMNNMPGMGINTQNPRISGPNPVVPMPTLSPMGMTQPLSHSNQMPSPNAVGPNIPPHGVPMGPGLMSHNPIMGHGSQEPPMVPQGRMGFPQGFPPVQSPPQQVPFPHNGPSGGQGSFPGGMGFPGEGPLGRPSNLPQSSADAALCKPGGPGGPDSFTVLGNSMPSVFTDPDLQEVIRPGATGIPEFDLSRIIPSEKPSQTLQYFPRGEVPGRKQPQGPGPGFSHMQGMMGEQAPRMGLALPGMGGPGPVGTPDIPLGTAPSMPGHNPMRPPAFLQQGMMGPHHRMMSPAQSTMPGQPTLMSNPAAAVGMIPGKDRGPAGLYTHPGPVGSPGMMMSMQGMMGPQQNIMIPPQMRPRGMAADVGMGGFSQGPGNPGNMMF
Put plainly: Inhibition of full length C-terminal 6-His-tagged beta-catenin (1 to 781 residues) (unknown origin) expressed in Escherichia coli BL21 (DE3)-N-terminal biotinylated human BCL9 (350 to 375 residues) protein-protein interaction incubated for 1 hr by Alphascreen assay. Background: Alpha assays give light when donor and acceptor beads are brought close together.

In assay [2] the test system is SW480. Put plainly: Antiproliferative activity against human SW480 cells incubated for 72 hrs by MTS assay. The format is functional, cell-based. To be noted: SW480, 72 h. A general note: Tetrazolium assays rely on reduction of a dye to a coloured formazan, in cell work by metabolically active cells.
The test system of the next assay is HCT-116. Briefly: Antiproliferative activity against human HCT116 cells incubated for 72 hrs by MTS assay. The format is functional, cell-based. As to conditions: HCT-116, 72 h.
Another assay relates to MDA-MB-231. Briefly: Antiproliferative activity against human MDA-MB-231 cells incubated for 72 hrs by MTS assay. In kind it is functional, cell-based. As to conditions: MDA-MB-231, 72 h.
For another assay, the system named is MDA-MB-468. Put plainly: Antiproliferative activity against human MDA-MB-468 cells incubated for 72 hrs by MTS assay. The format is functional, cell-based. To be noted: MDA-MB-468, 72 h.
Another assay has as its system MCF-10A. Put plainly: Antiproliferative activity against human MCF10A cells incubated for 72 hrs by MTS assay. In kind it is functional, cell-based.
Assay [3] can be described thus: (§1) Inhibition of Wnt/beta-catenin transactivation signalling in human SW480 cells harboring wild type tcf4 binding sites incubated for 24 hrs by TOPFlash luciferase assay. In kind it is cell-based.
Assay [4] has as its system SW480. The assay is described as §1. In kind it is cell-based.
Assay [5] relates to SW480. Put plainly: Inhibition of Wnt/beta-catenin transactivation signalling in human SW480 cells harboring mutant tcf4 binding sites assessed as relative activity at 3.125 uM incubated for 24 hrs by FOPFlash luciferase assay relative to control. In kind it is cell-based. Also noted: scale not given: the % may be the effect or the level left.
Assay [6] concerns SW480. Put plainly: Inhibition of Wnt/beta-catenin transactivation signalling in human SW480 cells harboring mutant tcf4 binding sites assessed as relative activity at 6.25 uM incubated for 24 hrs by FOPFlash luciferase assay relative to control. In kind it is cell-based. Further details: scale not given: the % may be the effect or the level left.
In assay [7] the test system is SW480. Briefly: Inhibition of Wnt/beta-catenin transactivation signalling in human SW480 cells harboring mutant tcf4 binding sites assessed as relative activity at 12.5 uM incubated for 24 hrs by FOPFlash luciferase assay relative to control. In kind it is cell-based. Also noted: scale not given: the % may be the effect or the level left.

Take `COc1cccc(S(=O)(=O)NC(=O)C(C)(C)Oc2cccc(N3CCC[C@H](C(=O)N(Cc4ccc(-c5cccs5)cc4)C4CC4)C3)c2)c1`: the negative-log IC50 (pIC50) (commonly the negative decadic logarithm of the IC50, by convention in mol/L) was 5.54 in [1]; 4.55 with SW480 [2]; 4.52 in the assay on HCT-116; 4.70 with MDA-MB-231; 4.81 in the assay with MDA-MB-468; 4.52 in the assay with MCF-10A. In [3], the negative logarithm of the IC50 (pIC50) is 5.11. The pKi (commonly the negative decadic logarithm of the Ki, by convention in mol/L) in [1] was 5.64. The Activity result in the assay on SW480 [4] is “Dose-Dependent Effect”; in the assay on SW480 [5], 98%; in the assay on SW480 [6], 81%; in the assay on SW480 [7], 54%.

These data come from ChEMBL document CHEMBL4823263, “Discovery of 2-(3-(3-Carbamoylpiperidin-1-yl)phenoxy)acetic Acid Derivatives as Novel Small-Molecule Inhibitors of the β-Catenin/B-Cell Lymphoma 9 Protein-Protein Interaction” (J Med Chem, 2021).
